Read-outs that look alike come from different tables or passages of the source. {C6SH} = six-carbon thiol for deposition on gold; {MB} = methylene blue redox reporter
Experiments:
[1] = tested on: E-AB sensor; experiment: In vivo control injections, sensor specificity; parameters: species or system Sprague-Dawley rats; conditions: camptothecin E-AB sensor in live rat, KDM
Excerpt: FIGS. 6A, 6B, and 6C. FIG. 6A depicts signals collected at high (120 Hz) and low (10 Hz) frequencies by a sensor of the invention. […] FIG. 6B: taking the difference (KDM) between the normalized high (120 Hz) and low (10 Hz) frequency signals produces a stable baseline.

[2] = E-AB sensor titration curves in working buffer (square wave voltammetry); format: binding; conditions: simple buffered solution
Procedure: Electrode functionalization. […] This was then dissolved in “assembling buffer” (10 mM Na2HPO4 with 1 M NaCl and 1 mM MgCl2 at pH 7.3) at a final concentration of 500 nM. The electrochemically cleaned gold electrodes were then immersed in 200 μL of this solution for 1 hour in the dark. Following this the electrode surface was rinsed with distilled water and incubated overnight at 4° C. in assembling buffer containing 5 mM 6-mercaptohexanol, followed by a further rinse with distilled water before use. […] These were then dissolved in buffer (10 mM Na2HPO4 with 1 M NaCl and 1 mM MgCl2 at pH 7.3) using different ratio of the two DNA probes. The total oligonucleotide concentration was kept constant at 500 nM to maintain a constant DNA probes packing density. The electrochemically cleaned gold electrodes were then immersed in 200 μL of this solution composed of two DNA probes for 1 hour in the dark. Following this step, the electrode surface was rinsed with distilled water and incubated overnight at 4° C. in assembling buffer containing 5 mM 6-mercaptohexanol, followed by a further rinse with distilled water before use. In-vitro measurements. Electrochemical measurements were performed at room temperature using a CH[…] potentiostat with a CHI684 Multiplexer (CH Instruments, Austin, Tex.) and a standard three-electrode cell containing a platinum counter electrode and a Ag/AgCl (3 M KCl) reference electrode. […] Titration curves. […] Using the values estimated from the previous fitting procedure the raw signal current was converted in signal change % (C%) using the following equation: […]

[3] = E-AB sensor binding curves in flowing undiluted whole blood
Procedure: Titration curves. Experimental titration curves were performed in 10 mL of working buffer (137 mM NaCl, KCl 2.7 mM, Na2HPO4 10 mM, KH2PO4 1.8 mM at pH 7.3) using three E-AB sensors modified with the oligonucleotide probe and using a SWV frequency of 10 and 120 Hz.
The binding curves performed in whole blood were conducted following the previous described experimental approach but using a closed-loop system with a continuous flow of whole blood (total volume of 20 mL at 1 mL/s) through a circulator pump.

[4] = Square wave voltammetry frequency vs signal change (%); format: binding; conditions: aptamer alone on sensor
Excerpt: Square wave voltammetry frequency vs signal change (%) plot. […] Then the estimated signal change (%) was plotted in function of the relative square wave frequency.

[5] = Solution binding of the unmodified aptamer, using the intrinsic fluorescence of irinotecan; conditions: unmodified aptamer free in solution, read-out: dissociation constant
[6] = Sensor equilibration time; format: binding; conditions: in buffer, clinically relevant concentrations, 500 Hz
Procedure: Sensor equilibration time. The sensor's equilibration time was determined using the above experimental approach and interrogating the sensor every 5 s in working buffer and using a SWV frequency of 500 Hz. […] The observed signal change was fitted to a single exponential decay to obtain the equilibration time constant of the sensor.

[7] = In vivo pharmacokinetic measurement with indwelling E-AB sensor in jugular vein; conditions: rat; for distribution rate (a): intravenous
Procedure: In-vivo measurements. All in vivo measurements were performed using a three-electrode setup in which the counter electrodes were made of platinum wire and the reference electrodes were a silver wire coated with a silver chloride film as described above. The measurements carried out in vivo were recorded using a handheld potentiostat from CH Instruments (Model 1242 B). Square Wave Voltammetry (SWV) was performed using a potential window of −0.1 to −0.45 V, a potential step of 0.001 V and 0.05 V amplitude
For in vivo measurements a 30 min sensor baseline was established before the drug infusion. A 3 mL syringe filled with the target drug was connected to the sensor-free catheter (placed in the jugular opposite that in which the sensor is emplaced) and placed in a motorized syringe pump. […] After drug infusion, recordings were taken for up to 1 hour before the next infusion. The real-time plotting and analysis of voltammetric data were carried out with the help of a script written in Python.
Animals. In vivo measurements were performed in male and female Sprague-Dawley rats (4-5 months old) weighing between 300 and 500 g. All animals were pair housed in a standard light cycle room (08:00 on, 20:00 off) and allowed ad libitum access to food and water. For in vivo measurements rats were induced under 5% isoflurane anesthesia in a Plexiglas anesthesia chamber. The rats were then maintained on 2-3% isoflurane gas for the duration of the experiment. A small incision was made above each vein, then each vein was isolated. A small hole was cut into each vein with spring-loaded microscissors. The silastic catheter inserted into the left jugular vein was constructed with a bent steel cannula with a screw-type connector and silastic tubing (11 cm, i.d. 0.64 mm, o.d. 1.19 mm). […]
where A and B are amplitudes, and […] for distribution and elimination, respectively. […] The area under the curve (AUC) was calculated using the parameters A, B, α and β, because integrating the equation 5 from 0 to infinity, it holds: […]
The clearance (ClT) was calculated by the equation: […]

[8] = unstructured 10-base strand; cited from earlier work

| Compound | signal gain relative to other variants [2] | E-AB sensing performance in whole blood [3] | dependence of gain on square-wave frequency [4] | other results |
| --- | --- | --- | --- | --- |
| O=c1[nH]cc(F)c(=O)[nH]1 [5-fluorouracil] |  |  |  | sensor response to control injection [1]: do not produce any measurable sensor response |
| CA32: truncated camptothecin aptamer: 5′-TCCGGACTTGGGTGGGTGGGTTGGGGTACGGT-3′ (DNA TCCGGACTTGGGTGGGTGGGTTGGGGTACGGT; listed as DNA, chemistry not fully specified) | greatest signal gain | supported high-gain E-AB sensing | only a weak function of square-wave frequency |  |
| CA40: 40-base truncation of the known camptothecin-binding DNA aptamer; G-quadruplex flanked by a 12-base-pair stem (DNA ACGCTCCGGACTTGGGTGGGTGGGTTGGGGTACGGTGCGT; DNA, 5' {C6SH}, 3' {MB}, backbone not given here; further chemistry not fully specified) |  |  |  | Kd ([5]; listed as parent aptamer): 475 nM; Kd [5]: ~475 nM; gain [3]: about 15%; association and dissociation kinetics, time constants [6]: < 5 s |
| CCc1c2c(nc3ccc(OC(=O)N4CCC(N5CCCCC5)CC4)cc13)-c1cc3c(c(=O)n1C2)COC(=O)[C@]3(O)CC [irinotecan] |  |  |  | variation in CMAX or the rate of the distribution phase between rats ([7]; both, Sprague-Dawley, in vivo, 20 mg/kg): 10-20%; distribution rate (a) ([7]; 10 mg kg (first value)): 0.58 ± 0.07 min; distribution rate (a) ([7]; 20 mg kg (second value)): 0.48 min |
| CA16: camptothecin aptamer, only the G-quadruplex binding pocket: 5′-GGGTGGGTGGGTTGGG-3′ (chemistry not given here) | greatest signal gain | supported high-gain E-AB sensing | only a weak function of square-wave frequency |  |
| CA28: truncated camptothecin aptamer: 5′-CGGACTTGGGTGGGTGGGTTGGGGTACG-3′ (DNA CGGACTTGGGTGGGTGGGTTGGGGTACG; listed as DNA, chemistry not fully specified) | greatest signal gain | supported high-gain E-AB sensing | only a weak function of square-wave frequency |  |
| SEQ ID NO: 8: secondary moiety: unstructured 10-base strand, random sequence of adenines and thymines, reporter-modified (DNA ATTATTTTTT; reporter-modified, reporter and position not given here) |  |  |  | rate of electron transfer [8]: 80 per second |
| CA40_2MM: camptothecin aptamer, two mismatches: 5′-ACGCTCTGGACTTGGGTGGGTGGGTTGGGGTACGGTGTGT-3′ (DNA ACGCTCTGGACTTGGGTGGGTGGGTTGGGGTACGGTGTGT; listed as DNA, chemistry not fully specified) | greatest signal gain |  |  |  |

From patent publication US20220225910A1, “Modulating Electron Transfer Kinetics in E-DNA-type Sensors” (The Regents of the University of California, priority 2019, published 2022)
